Data as given in the supplement of paper PMC11061612.

What was measured:
Carboplatin = compound: C1CC(C1)(C(=O)[O-])C(=O)[O-].N.N.[Pt+2] [Carboplatin]; conditions: max 10 µM
Method in brief: (§1)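 Plates with 1536 wells received cancer cell lines in 7.5 μl of DMEM/F12 or RPMI containing 10% FBS. After 24 hours at 37°C and 5% CO2, cells were dosed for 72 hours with final DMSO typically 0.2%, and viability was read by CellTiter-Glo 2.0 luminescence scaled between blank-well and DMSO-well means. The single-agent IC50 was taken from a logistic fit of the dose responses made with a non-linear mixed effects model, that logistic curve having two parameters.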

AZD5363 = compound: C1CN(CCC1(C(=O)N[C@@H](CCO)C2=CC=C(C=C2)Cl)N)C3=NC=NC4=C3C=CN4 [AZD5363]; conditions: max 10 µM
Method in brief: as §1

AZD1775 = compound: C=CCn1c(=O)c2cnc(Nc3ccc(N4CCN(C)CC4)cc3)nc2n1-c1cccc(C(C)(C)O)n1 [AZD1775]; conditions: max 3 µM
Method in brief: as §1

Trametinib = compound: CC(=O)Nc1cccc(-n2c(=O)n(C3CC3)c(=O)c3c(Nc4ccc(I)cc4F)n(C)c(=O)c(C)c32)c1 [Trametinib]; conditions: max 1 µM
Method in brief: as §1

Paclitaxel = compound: CC(=O)O[C@H]1C(=O)[C@@]2(C)[C@H]([C@H](OC(=O)c3ccccc3)[C@]3(O)C[C@H](OC(=O)[C@H](O)[C@@H](NC(=O)c4ccccc4)c4ccccc4)C(C)=C1C3(C)C)[C@]1(OC(C)=O)CO[C@@H]1C[C@@H]2O [Paclitaxel]; conditions: max 3 µM
Method in brief: as §1

Palbociclib = compound: CC(=O)c1c(C)c2cnc(Nc3ccc(N4CCNCC4)cn3)nc2n(C2CCCC2)c1=O [Palbociclib]; conditions: max 10 µM
Method in brief: as §1

AZD1390 = compound: CC(C)n1c(=O)n(C)c2cnc3cc(F)c(-c4ccc(OCCCN5CCCCC5)nc4)cc3c21 [AZD1390]; conditions: max 0.3 µM
Method in brief: as §1

Venetoclax = compound: CC1(C)CCC(CN2CCN(c3ccc(C(=O)NS(=O)(=O)c4ccc(NCC5CCOCC5)c([N+](=O)[O-])c4)c(Oc4cnc5[nH]ccc5c4)c3)CC2)=C(c2ccc(Cl)cc2)C1 [Venetoclax]; conditions: max 1 µM
Method in brief: as §1

Dasatinib = compound: CC1=C(C(=CC=C1)Cl)NC(=O)C2=CN=C(S2)NC3=CC(=NC(=N3)C)N4CCN(CC4)CCO [Dasatinib]; conditions: max 2 µM
Method in brief: as §1

SG3199 = compound: CC1=CN2[C@@H](C1)C=NC3=CC(=C(C=C3C2=O)OC)OCCCCCOC4=C(C=C5C(=C4)N=C[C@@H]6CC(=CN6C5=O)C)OC [SG3199]; conditions: max 0.001 µM
Method in brief: as §1

AZD2811 = compound: CCN(CCO)CCCOc1ccc2c(Nc3cc(CC(=O)Nc4cccc(F)c4)[nH]n3)ncnc2c1 [AZD2811]; conditions: max 1 µM
Method in brief: as §1

SN-38 = compound: CCc1c2c(nc3ccc(O)cc13)-c1cc3c(c(=O)n1C2)COC(=O)[C@]3(O)CC [SN-38]; conditions: max 0.3 µM
Method in brief: as §1

AZD0156 = compound: CN(C)CCCOc1ccc(-c2ccc3ncc4c(c3c2)n(C2CCOCC2)c(=O)n4C)cn1 [AZD0156]; conditions: max 3 µM
Method in brief: as §1

AZD4320 = compound: CN(CC[C@H](CSC1=CC=CC=C1)NC2=C(C=C(C=C2)S(=O)(=O)NC(=O)C3=CC=C(C=C3)N4CCC(CC4)[C@H](C5=CC=CC=C5C6=CC=C(C=C6)Cl)O)S(=O)(=O)C(F)(F)F)CCO [AZD4320]; conditions: max 1 µM
Method in brief: as §1

Alisertib = compound: COc1cc(Nc2ncc3c(n2)-c2ccc(Cl)cc2C(c2c(F)cccc2OC)=NC3)ccc1C(=O)O [Alisertib]; conditions: max 10 µM
Method in brief: as §1

Etoposide = compound: COc1cc([C@@H]2c3cc4c(cc3[C@@H](O[C@@H]3O[C@@H]5CO[C@@H](C)O[C@H]5[C@H](O)[C@H]3O)[C@H]3COC(=O)[C@H]23)OCO4)cc(OC)c1O [Etoposide]; conditions: max 10 µM
Method in brief: as §1

Gefitinib = compound: COc1cc2ncnc(Nc3ccc(F)c(Cl)c3)c2cc1OCCCN1CCOCC1 [Gefitinib]; conditions: max 10 µM
Method in brief: as §1

Prexasertib = compound: COc1cccc(OCCCN)c1-c1cc(Nc2cnc(C#N)cn2)n[nH]1 [Prexasertib]; conditions: max 1 µM
Method in brief: as §1

Doxorubicin = compound: COc1cccc2c1C(=O)c1c(O)c3c(c(O)c1C2=O)C[C@@](O)(C(=O)CO)C[C@@H]3O[C@H]1C[C@H](N)[C@H](O)[C@H](C)O1 [Doxorubicin]; conditions: max 1 µM
Method in brief: as §1

AZD5153 = compound: COc1nnc2ccc(N3CCC(c4ccc(OCCN5CCN(C)C(=O)[C@H]5C)cc4)CC3)nn12 [AZD5153]; conditions: max 1 µM
Method in brief: as §1

Lapatinib = compound: CS(=O)(=O)CCNCc1ccc(-c2ccc3ncnc(Nc4ccc(OCc5cccc(F)c5)c(Cl)c4)c3c2)o1 [Lapatinib]; conditions: max 10 µM
Method in brief: as §1

AZD8186 = compound: C[C@@H](Nc1cc(F)cc(F)c1)c1cc(C(=O)N(C)C)cc2c(=O)cc(N3CCOCC3)oc12 [AZD8186]; conditions: max 10 µM
Method in brief: as §1

Crizotinib = compound: C[C@@H](Oc1cc(-c2cnn(C3CCNCC3)c2)cnc1N)c1c(Cl)ccc(F)c1Cl [Crizotinib]; conditions: max 10 µM
Method in brief: as §1

Savolitinib = compound: C[C@@H](c1ccc2nccn2c1)n1nnc2ncc(-c3cnn(C)c3)nc21 [Savolitinib]; conditions: max 1 µM
Method in brief: as §1

AZD6738 = compound: C[C@@H]1COCCN1C2=NC(=NC(=C2)C3(CC3)[S@](=N)(=O)C)C4=C5C=CNC5=NC=C4 [AZD6738]; conditions: max 10 µM
Method in brief: as §1

AZD5991 = compound: Cc1c2c(nn1C)CSCc1cc(n(C)n1)CSc1cc(c3ccccc3c1)OCCCc1c(C(=O)O)n(C)c3c-2c(Cl)ccc13 [AZD5991]; conditions: max 1 µM
Method in brief: as §1

AZD7648 = compound: Cc1cc2ncnn2cc1Nc1ncc2c(n1)n(C1CCOCC1)c(=O)n2C [AZD7648]; conditions: max 10 µM
Method in brief: as §1

Taselisib = compound: Cc1nc(-c2cn3c(n2)-c2ccc(-c4cnn(C(C)(C)C(N)=O)c4)cc2OCC3)n(C(C)C)n1 [Taselisib]; conditions: max 10 µM
Method in brief: as §1

Selumetinib = compound: Cn1cnc2c(F)c(Nc3ccc(Br)cc3Cl)c(C(=O)NOCCO)cc21 [Selumetinib]; conditions: max 10 µM
Method in brief: as §1

SRA737 = compound: N#Cc1cnc(Nc2cc(NC[C@H]3CNCCO3)c(C(F)(F)F)cn2)cn1 [SRA737]; conditions: max 10 µM
Method in brief: as §1

MK-2206 = compound: NC1(c2ccc(-c3nc4ccn5c(=O)[nH]nc5c4cc3-c3ccccc3)cc2)CCC1 [MK-2206]; conditions: max 10 µM
Method in brief: as §1

Gemcitabine = compound: Nc1ccn([C@@H]2O[C@H](CO)[C@@H](O)C2(F)F)c(=O)n1 [Gemcitabine]; conditions: max 0.3 µM
Method in brief: as §1

[1] = compound: O=C(Nc1ccc2[nH]nc(-c3ccncc3)c2c1)[C@@H]1CCN(CC(=O)N2CCN(c3ccc(-c4ncccn4)cc3)CC2)C1; conditions: max 5 µM
Method in brief: as §1

Olaparib = compound: O=C(c1cc(Cc2n[nH]c(=O)c3ccccc23)ccc1F)N1CCN(C(=O)C2CC2)CC1 [Olaparib]; conditions: max 10 µM
Method in brief: as §1

5-Fluorouracil = compound: O=c1[nH]cc(F)c(=O)[nH]1 [5-Fluorouracil]; conditions: max 20 µM
Method in brief: as §1

Row | Cell Line | IC50, cell viability 72 h (Carboplatin) [nM] | IC50, cell viability 72 h (AZD5363) [nM] | IC50, cell viability 72 h (AZD1775) [nM] | IC50, cell viability 72 h (Trametinib) [nM] | IC50, cell viability 72 h (Paclitaxel) [nM] | IC50, cell viability 72 h (Palbociclib) [nM] | IC50, cell viability 72 h (AZD1390) [nM] | IC50, cell viability 72 h (Venetoclax) [nM] | IC50, cell viability 72 h (Dasatinib) [nM] | IC50, cell viability 72 h (SG3199) [nM] | IC50, cell viability 72 h (AZD2811) [nM] | IC50, cell viability 72 h (SN-38) [nM] | IC50, cell viability 72 h (AZD0156) [nM] | IC50, cell viability 72 h (AZD4320) [nM] | IC50, cell viability 72 h (Alisertib) [nM] | IC50, cell viability 72 h (Etoposide) [nM] | IC50, cell viability 72 h (Gefitinib) [nM] | IC50, cell viability 72 h (Prexasertib) [nM] | IC50, cell viability 72 h (Doxorubicin) [nM] | IC50, cell viability 72 h (AZD5153) [nM] | IC50, cell viability 72 h (Lapatinib) [nM] | IC50, cell viability 72 h (AZD8186) [nM] | IC50, cell viability 72 h (Crizotinib) [nM] | IC50, cell viability 72 h (Savolitinib) [nM] | IC50, cell viability 72 h (AZD6738) [nM] | IC50, cell viability 72 h (AZD5991) [nM] | IC50, cell viability 72 h (AZD7648) [nM] | IC50, cell viability 72 h (Taselisib) [nM] | IC50, cell viability 72 h (Selumetinib) [nM] | IC50, cell viability 72 h (SRA737) [nM] | IC50, cell viability 72 h (MK-2206) [nM] | IC50, cell viability 72 h (Gemcitabine) [nM] | IC50, cell viability 72 h [1] [nM] | IC50, cell viability 72 h (Olaparib) [nM] | IC50, cell viability 72 h (5-Fluorouracil) [nM]
1 | NCI-H1355 (Lung Adenocarcinoma) | > 10000 | > 10000 | > 3000 | > 1000 | 42.9 | > 10000 | > 300 | > 1000 | > 2000 | > 1 | > 1000 | > 300 | > 3000 | > 1000 | > 10000 | > 10000 | > 10000 | 86.5 | > 1000 | > 1000 | > 10000 | > 10000 | > 10000 | > 1000 | 8560 | > 1000 | > 10000 | 5790 | > 10000 | > 10000 | > 10000 | > 300 | > 5000 | > 10000 | > 20000
2 | COLO-679 (Melanoma) | > 10000 | > 10000 | > 3000 | 3.7 | 658 | > 10000 | > 300 | > 1000 | > 2000 | > 1 | > 1000 | 46.1 | > 3000 | > 1000 | > 10000 | 7180 | > 10000 | 11.2 | 342 | > 1000 | > 10000 | > 10000 | > 10000 | > 1000 | 4920 | > 1000 | > 10000 | > 10000 | 242 | 1890 | > 10000 | 15.2 | 90.6 | > 10000 | > 20000
3 | DU-145 (Prostate Carcinoma) | > 10000 | > 10000 | > 3000 | > 1000 | 187 | > 10000 | > 300 | > 1000 | > 2000 | > 1 | > 1000 | 47.3 | > 3000 | > 1000 | > 10000 | > 10000 | > 10000 | 262 | > 1000 | > 1000 | > 10000 | > 10000 | > 10000 | > 1000 | > 10000 | > 1000 | > 10000 | > 10000 | > 10000 | > 10000 | > 10000 | > 300 | > 5000 | > 10000 | > 20000
